“And” between values parts separate entries of the source, which are not always exact repeats. Identical values can stand only once. ± gives the uncertainty stated by the source. Values belong to the molecule of their own block, whether it stands above or below them.
Structure (SMILES): CC(C)NC(C)C
viscosity (298.15 K, 100 kPa): 0.38 ± 0.02 mPa·s and 0.382 ± 0.012 mPa·s
viscosity (298.15 K, 101 kPa): 0.382 ± 0.06 mPa·s
viscosity (303.15 K, 100 kPa): 0.36 ± 0.02 mPa·s and 0.364 ± 0.011 mPa·s
viscosity (303.15 K, 101 kPa): 0.364 ± 0.06 mPa·s
viscosity (308.15 K, 100 kPa): 0.35 ± 0.02 mPa·s and 0.347 ± 0.011 mPa·s
viscosity (308.15 K, 101 kPa): 0.347 ± 0.06 mPa·s and 0.3089 ± 0.01 mPa·s

viscosity (318.15 K, 101 kPa): 264.5 ± 59 mPa·s
Structure (SMILES): CCCC[N+]1(C)CCCCC1.N#C[S-]

Structure (SMILES): S=C=S
viscosity (293.15 K, 101 kPa): 0.36 ± 0.01 mPa·s and 0.365 ± 0.004 mPa·s
viscosity (298.15 K, 101.33 kPa): 0.4077 ± 0.017 mPa·s

Structure (SMILES): CCOP(=O)([O-])OCC.CC[N+]1(C)CCOCC1
viscosity (293.15 K, 100 kPa): 12080 ± 1500 mPa·s
viscosity (298.15 K, 100 kPa): 6680 ± 740 mPa·s
viscosity (303.15 K, 100 kPa): 3786 ± 390 mPa·s
viscosity (308.15 K, 100 kPa): 2325 ± 220 mPa·s
viscosity (313.15 K, 100 kPa): 1466 ± 130 mPa·s
viscosity (318.15 K, 100 kPa): 941.7 ± 80 mPa·s
viscosity (323.15 K, 100 kPa): 634 ± 51 mPa·s

viscosity (303.15 K, 101 kPa): 1.867 ± 0.011 mPa·s
Structure (SMILES): CCOC(=O)CCBr

viscosity (293.15 K, 101.33 kPa): 16.95 ± 0.39 mPa·s
viscosity (298.15 K, 101.33 kPa): 13.83 ± 0.32 mPa·s
Structure (SMILES): CCCCCCCCCCCO

viscosity (298.15 K, 101 kPa): 6.93 ± 0.084 mPa·s
Structure (SMILES): C=CCc1ccc(O)c(OC)c1

viscosity (298.15 K, 101 kPa): 0.8768 ± 0.019 mPa·s
viscosity (303.15 K, 101 kPa): 0.8077 ± 0.017 mPa·s
viscosity (308.15 K, 101 kPa): 0.7483 ± 0.016 mPa·s
viscosity (313.15 K, 101 kPa): 0.7012 ± 0.015 mPa·s
viscosity (318.15 K, 101 kPa): 0.6639 ± 0.014 mPa·s
Structure (SMILES): C=C(C)C(=O)OCCCC

Structure (SMILES): O=CN1CCOCC1
viscosity (298.15 K, 101 kPa): 7.656 ± 0.15 mPa·s
viscosity (298.15 K, 101.3 kPa): 7.613 ± 0.052 mPa·s
viscosity (303.15 K, 101 kPa): 6.626 ± 0.18 mPa·s and 6.598 ± 0.13 mPa·s
viscosity (308.15 K, 101 kPa): 5.731 ± 0.16 mPa·s
viscosity (313.15 K, 101 kPa): 5.141 ± 0.14 mPa·s and 5.068 ± 0.11 mPa·s
viscosity (323.15 K, 101 kPa): 4.036 ± 0.089 mPa·s

viscosity (298.15 K, 101 kPa): 804 ± 50 mPa·s
viscosity (303.15 K, 101 kPa): 560 ± 32 mPa·s
viscosity (308.15 K, 101 kPa): 408 ± 21 mPa·s
viscosity (313.15 K, 101 kPa): 306 ± 15 mPa·s
viscosity (318.15 K, 101 kPa): 227 ± 10 mPa·s
viscosity (323.15 K, 101 kPa): 177 ± 7 mPa·s
Structure (SMILES): CC(CC(C)(C)C)CP(=O)([O-])CC(C)CC(C)(C)C.CCCCCCCC[P+](C)(C)C (stereo not given)

Structure (SMILES): CCCC[N+]1(C)CCCC1.N#C[C-](C#N)C#N
viscosity (308.15 K, 101 kPa): 20.56 ± 1.2 mPa·s
viscosity (318.15 K, 101 kPa): 15.44 ± 0.94 mPa·s

Structure (SMILES): NCc1ccccc1
viscosity (303.15 K, 100 kPa): 1.497 ± 0.035 mPa·s
viscosity (303.15 K, 101 kPa): 1.415 ± 0.03 mPa·s
viscosity (313.15 K, 100 kPa): 1.262 ± 0.03 mPa·s
viscosity (323.15 K, 100 kPa): 1.071 ± 0.025 mPa·s

viscosity (293.15 K, 100 kPa): 1.656 ± 0.1 mPa·s
viscosity (298.15 K, 100 kPa): 1.51 ± 0.091 mPa·s
Structure (SMILES): CCOC(=O)CC(C)=O

viscosity (313.15 K, 101 kPa): 2.45 ± 0.03 mPa·s
viscosity (318.15 K, 101 kPa): 2.23 ± 0.02 mPa·s
viscosity (323.15 K, 101 kPa): 2.06 ± 0.02 mPa·s
Structure (SMILES): CC(C)(C)C(=O)O

Structure (SMILES): CC[NH3+].O=[N+]([O-])[O-]
viscosity (293.15 K, 100 kPa): 40.61 ± 0.9 mPa·s
viscosity (293.15 K, 101 kPa): 43.5 mPa·s and 44.9 ± 1.2 mPa·s
viscosity (298 K, 101 kPa): 37.51 ± 1.2 mPa·s
viscosity (298.15 K, 100 kPa): 34.49 ± 0.77 mPa·s
viscosity (298.15 K, 101 kPa): 37.5 ± 1.6 mPa·s and 36.5 mPa·s
viscosity (303.15 K, 100 kPa): 29.65 ± 0.66 mPa·s
viscosity (303.15 K, 101 kPa): 31 mPa·s
viscosity (308.15 K, 100 kPa): 25.76 ± 0.58 mPa·s
viscosity (308.15 K, 101 kPa): 26.5 mPa·s
viscosity (313.15 K, 100 kPa): 22.67 ± 0.51 mPa·s
viscosity (313.15 K, 101 kPa): 22.8 mPa·s
viscosity (318.15 K, 100 kPa): 20.12 ± 0.46 mPa·s
viscosity (318.15 K, 101 kPa): 20 mPa·s
viscosity (323.15 K, 101 kPa): 17.6 mPa·s

viscosity (313.15 K, 101 kPa): 8.33 ± 0.07 mPa·s
Structure (SMILES): CCCCCCCCCCCCCCCCCCCc1ccccc1

viscosity (293.15 K, 101.3 kPa): 21.4 ± 0.6 mPa·s and 21.62 ± 0.88 mPa·s
viscosity (293.15 K, 101.32 kPa): 19.2 ± 1.3 mPa·s
viscosity (297.85 K, 101 kPa): 17.7 ± 0.2 mPa·s
viscosity (298.15 K, 100 kPa): 17.7 ± 3.5 mPa·s and 17.87 ± 0.093 mPa·s
viscosity (298.15 K, 101.3 kPa): 16.1 ± 2 mPa·s
viscosity (298.15 K, 101.33 kPa): 15.31 ± 1.6 mPa·s
viscosity (302.85 K, 101 kPa): 14.4 ± 0.16 mPa·s
viscosity (303 K, 101 kPa): 15 ± 0.5 mPa·s
viscosity (303.15 K, 101.33 kPa): 12.24 ± 1.3 mPa·s
viscosity (307.85 K, 101 kPa): 11.92 ± 0.13 mPa·s
viscosity (308.15 K, 100 kPa): 11.07 ± 0.074 mPa·s
viscosity (308.15 K, 101.33 kPa): 9.945 ± 1.1 mPa·s
viscosity (312.95 K, 101 kPa): 9.95 ± 0.11 mPa·s
viscosity (313.15 K, 101.3 kPa): 9.53 ± 0.39 mPa·s
viscosity (313.15 K, 101.32 kPa): 8.45 ± 0.58 mPa·s
viscosity (313.15 K, 101.33 kPa): 9.17 ± 0.29 mPa·s and 9.535 ± 1 mPa·s
viscosity (317.75 K, 101 kPa): 8.44 ± 0.09 mPa·s
viscosity (318.15 K, 101.3 kPa): 8.08 ± 0.33 mPa·s
viscosity (318.15 K, 101.33 kPa): 7.68 ± 0.25 mPa·s
viscosity (322.75 K, 101 kPa): 7.19 ± 0.07 mPa·s
viscosity (323.15 K, 101.3 kPa): 6.96 ± 0.18 mPa·s and 6.91 ± 0.28 mPa·s
Structure (SMILES): OCCO
viscosity (308.15 K, 101 kPa): 10.97 ± 0.81 mPa·s and 12 ± 0.32 mPa·s and 11.66 ± 0.23 mPa·s
viscosity (318.15 K, 100 kPa): 9.59 ± 0.09 mPa·s and 7.888 ± 3 mPa·s and 8.126 ± 0.06 mPa·s

Structure (SMILES): CCCCCCn1cc[n+](C)c1.[Cl-]
viscosity (293.15 K, 101 kPa): 11420 ± 1000 mPa·s
viscosity (303.15 K, 101 kPa): 4206 ± 320 mPa·s
viscosity (313.15 K, 101 kPa): 1718 ± 100 mPa·s
viscosity (323.15 K, 101 kPa): 1879 ± 600 mPa·s and 783.4 ± 38 mPa·s
